Data taken from patent US20230295260A1, “GLP RECEPTOR AGONISTS” (HEPTARES THERAPEUTICS LIMITED, priority 2020, published 2023).
pEC50: −log10 of the molar value. Non-standard residues stand in square brackets, D forms with d. Residues, ends and D or L forms follow the SMILES beside them. ξ: configuration not given here. *: point of attachment. Malonyl(2,2-Me2,histaminyl) = CC(C)(C(=O)NCCc1cnc[nH]1)C(=O)*; Ala(1H-tetrazol-5-yl) = N[C@@H](Cc1nnn[nH]1)C(=O)O; αMeL = CC(C)C[C@](C)(N)C(=O)O; ξαMeD = CC(N)(CC(=O)O)C(=O)O; Nle = CCCC[C@H](N)C(=O)O; Aib = CC(C)(N)C(=O)O; Alloc = C=CCOC(=O)*

Assays:
human GLP2 receptor = molecular target: T1, human GLP2 receptor (Homo sapiens, UniProt O95838); test: cAMP accumulation assay (HTRF), functional agonism of human GLP2 receptor in HEK cells; conditions: for Emax: HEK293, read-out: Human GLP-2R agonist cAMP Emax;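 as to all read-outs here: HEK cells transduced via BacMam to express human GLP2 receptor, agonist-stimulated cAMP measured by HTRF after 45 min at 37 °C in HBSS with 0.5 mM IBMX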
T1 sequence (O95838 1-553): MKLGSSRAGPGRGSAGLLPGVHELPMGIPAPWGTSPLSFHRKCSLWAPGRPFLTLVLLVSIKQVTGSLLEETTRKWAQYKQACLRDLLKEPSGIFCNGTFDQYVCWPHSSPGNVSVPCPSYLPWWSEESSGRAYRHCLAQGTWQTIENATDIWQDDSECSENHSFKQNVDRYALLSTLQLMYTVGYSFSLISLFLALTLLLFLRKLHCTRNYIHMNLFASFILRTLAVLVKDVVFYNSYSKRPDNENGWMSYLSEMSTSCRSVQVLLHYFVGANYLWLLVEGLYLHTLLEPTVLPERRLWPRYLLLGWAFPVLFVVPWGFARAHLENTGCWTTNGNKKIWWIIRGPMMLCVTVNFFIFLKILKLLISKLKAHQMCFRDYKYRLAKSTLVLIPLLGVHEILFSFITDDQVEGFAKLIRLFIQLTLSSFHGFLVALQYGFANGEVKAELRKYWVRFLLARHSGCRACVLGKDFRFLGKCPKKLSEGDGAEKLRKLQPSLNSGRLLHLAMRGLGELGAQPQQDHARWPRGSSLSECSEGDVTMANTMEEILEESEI

mouse GLP1 receptor = molecular target: T2, mouse GLP1 receptor (Mus musculus, UniProt O35659); test: cAMP accumulation assay (HTRF), functional agonism of mouse GLP1 receptor in HEK cells; format: cell-based; conditions: HEK cells transiently transfected, 45 min 37° C.; for Emax: HEK293, read-out: Mouse GLP-1 R agonist cAMP Emax; for EC50: read-out: Mouse GLP-1 R agonist cAMP pEC50 (converted)
T2 construct: expressed in transfected cells; host or cells: HEK cells, transient transfection with GeneJuice
T2 sequence (O35659 22-463): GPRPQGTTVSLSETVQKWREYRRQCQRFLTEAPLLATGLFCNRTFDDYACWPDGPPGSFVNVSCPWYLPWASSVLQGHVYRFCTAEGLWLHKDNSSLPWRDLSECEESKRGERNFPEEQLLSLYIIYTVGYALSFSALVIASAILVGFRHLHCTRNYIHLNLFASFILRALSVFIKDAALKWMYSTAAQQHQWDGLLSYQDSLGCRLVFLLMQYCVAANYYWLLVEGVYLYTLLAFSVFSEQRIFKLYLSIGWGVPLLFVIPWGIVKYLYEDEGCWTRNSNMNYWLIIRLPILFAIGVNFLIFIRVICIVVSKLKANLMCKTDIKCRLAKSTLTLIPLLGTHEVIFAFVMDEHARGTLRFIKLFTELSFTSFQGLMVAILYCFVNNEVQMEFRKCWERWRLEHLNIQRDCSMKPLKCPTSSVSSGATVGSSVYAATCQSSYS

mouse GLP2 receptor = molecular target: T3, mouse GLP2 receptor (Mus musculus, UniProt Q5IXF8); test: cAMP accumulation assay (HTRF), functional agonism of mouse GLP2 receptor in HEK cells; format: cell-based; conditions: HEK cells transiently transfected, 45 min 37° C.; for Emax: HEK293, read-out: Mouse GLP-2R agonist cAMP Emax; for EC50: read-out: Mouse GLP-2R agonist cAMP pEC50 (converted)
T3 construct: expressed in transfected cells; host or cells: HEK cells, transient transfection with GeneJuice
T3 sequence (Q5IXF8 1-512): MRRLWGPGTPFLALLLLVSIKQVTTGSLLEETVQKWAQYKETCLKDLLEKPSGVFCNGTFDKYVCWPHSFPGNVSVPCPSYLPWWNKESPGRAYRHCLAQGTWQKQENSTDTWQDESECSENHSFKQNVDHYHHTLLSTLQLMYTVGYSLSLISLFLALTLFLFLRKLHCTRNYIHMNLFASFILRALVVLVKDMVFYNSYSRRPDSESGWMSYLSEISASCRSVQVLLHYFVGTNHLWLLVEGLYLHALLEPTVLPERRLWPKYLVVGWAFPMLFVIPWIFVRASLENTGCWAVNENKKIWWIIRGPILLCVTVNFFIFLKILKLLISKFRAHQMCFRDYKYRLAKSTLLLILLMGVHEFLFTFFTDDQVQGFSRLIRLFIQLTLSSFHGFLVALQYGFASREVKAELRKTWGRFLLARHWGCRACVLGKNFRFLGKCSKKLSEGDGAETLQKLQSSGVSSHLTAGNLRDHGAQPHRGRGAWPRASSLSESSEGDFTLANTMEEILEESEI

human GLP1 receptor = molecular target: T4, human GLP1 receptor (Homo sapiens, UniProt P43220); test: cAMP accumulation assay (HTRF), functional agonism of human GLP1 receptor in HEK cells; format: cell-based; conditions: HEK cells, human GLP1 receptor BacMam, 45 min 37° C.; for Emax: HEK293, read-out: Human GLP-1R agonist cAMP Emax; for EC50: read-out: Human GLP-1R agonist cAMP pEC50 (converted)
T4 construct: expressed in transfected cells; host or cells: HEK cells, BacMam virus transduction
T4 sequence (P43220 24-463): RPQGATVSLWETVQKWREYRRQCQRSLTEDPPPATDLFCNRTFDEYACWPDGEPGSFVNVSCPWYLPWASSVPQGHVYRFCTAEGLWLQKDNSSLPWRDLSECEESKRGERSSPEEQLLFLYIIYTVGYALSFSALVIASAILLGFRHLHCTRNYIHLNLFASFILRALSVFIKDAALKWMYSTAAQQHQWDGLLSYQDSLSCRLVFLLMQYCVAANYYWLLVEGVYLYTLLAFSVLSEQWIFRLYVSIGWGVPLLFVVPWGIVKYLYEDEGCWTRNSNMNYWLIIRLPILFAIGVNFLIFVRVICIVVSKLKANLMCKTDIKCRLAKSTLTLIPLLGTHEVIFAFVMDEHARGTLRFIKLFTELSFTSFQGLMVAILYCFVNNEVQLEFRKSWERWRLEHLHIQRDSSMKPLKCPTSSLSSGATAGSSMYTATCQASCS

SMILES | pEC50 (human GLP2 receptor) | Emax (human GLP2 receptor) | Emax (mouse GLP1 receptor) | EC50 (mouse GLP1 receptor) | Emax (mouse GLP2 receptor) | EC50 (mouse GLP2 receptor) | Emax (human GLP1 receptor) | EC50 (human GLP1 receptor)
CCCC[C@H](NC(=O)[C@H](CCC(=O)O)NC(=O)[C@H](CC(=O)O)NC(=O)[C@H](CO)NC(=O)[C@H](Cc1ccccc1)NC(=O)[C@H](CO)NC(=O)CNC(=O)[C@H](CC(=O)O)NC(=O)CNC(=O)[C@@H](N)Cc1cnc[nH]1)C(=O)N[C@H](Cc1ccccc1)C(=O)N[C@H](C(=O)N[C@H](C(=O)N[C@@H](CC(C)C)C(=O)N[C@@H](CC(=O)O)C(=O)N[C@@H](CC(C)C)C(=O)N[C@@H](CC(C)C)C(=O)N[C@@H](C)C(=O)N[C@@H](C)C(=O)N[C@@H](CCCNC(=N)N)C(=O)N[C@@H](CC(=O)O)C(=O)N[C@@H](Cc1ccccc1)C(=O)N[C@H](C(=O)N[C@@H](CC(N)=O)C(=O)N[C@@H](Cc1c[nH]c2ccccc12)C(=O)N[C@@H](CC(C)C)C(=O)N[C@H](C(=O)N[C@@H](CCC(N)=O)C(=O)N[C@H](C(=O)N[C@@H](CCCCN)C(=O)N[C@H](C(=O)N[C@H](C(=O)N[C@@H](CC(=O)O)C(N)=O)[C@@H](C)O)[C@@H](C)CC)[C@@H](C)O)[C@@H](C)CC)[C@@H](C)CC)[C@@H](C)CC)[C@@H](C)O [FE-203799, reference compound] (H-HGDGSFSDE[Nle][dF]TILDLLAARDFINWLIQTKITD-NH2) | 10.80 | 101% | 53.4% | > 50.1 nM | 98.1% | 0.0316 nM | 61.4% | 158 nM
C=CCOC(=O)NCCCC[C@H](NC(=O)[C@H](CC(C)C)NC(=O)[C@H](CC(=O)O)NC(=O)[C@H](CC(C)C)NC(=O)[C@@H](NC(=O)[C@@H](NC(=O)[C@@H](Cc1ccccc1)NC(=O)[C@H](CCCC)NC(=O)[C@H](CCC(=O)O)NC(=O)[C@H](CC(=O)O)NC(=O)[C@H](CO)NC(=O)[C@H](Cc1ccccc1)NC(=O)[C@H](CO)NC(=O)CNC(=O)[C@H](Cc1nn[nH]n1)NC(=O)C(C)(C)C(=O)NCCc1c[nH]cn1)[C@@H](C)O)[C@@H](C)CC)C(=O)N[C@@H](C)C(=O)N[C@@H](C)C(=O)N[C@@H](CCCCN)C(=O)N[C@@H](CC(=O)O)C(=O)N[C@@H](Cc1ccccc1)C(=O)N[C@H](C(=O)N[C@@H](CC(N)=O)C(=O)N[C@@H](Cc1c[nH]c2ccccc12)C(=O)N[C@@H](CC(C)C)C(=O)N[C@H](C(=O)N[C@@H](CCC(N)=O)C(=O)N[C@H](C(=O)N[C@@H](CCCCN)C(=O)N[C@H](C(=O)N[C@H](C(=O)N[C@@H](Cc1ccccc1)C(N)=O)[C@@H](C)O)[C@@H](C)CC)[C@@H](C)O)[C@@H](C)CC)[C@@H](C)CC [Example 2] ({Malonyl(2,2-Me2,histaminyl)}-[Ala(1H-tetrazol-5-yl)]GSFSDE[Nle][dF]TILDLK(Alloc)AAKDFINWLIQTKITF-NH2) | 10.50 | 101% | 96.1% | 25.1 nM | 106% | 3.98 nM | 94.7% | 7.94 nM

Next, values leading:

pEC50 (human GLP2 receptor) | Emax (human GLP2 receptor) | Emax (mouse GLP1 receptor) | EC50 (mouse GLP1 receptor) | Emax (mouse GLP2 receptor) | EC50 (mouse GLP2 receptor) | Emax (human GLP1 receptor) | EC50 (human GLP1 receptor) | SMILES
11.10 | 100% | 92.3% | 3.16 nM | 101% | 3.98 nM | 93.4% | 2.51 nM | C=CCOC(=O)NCCCC[C@H](NC(=O)[C@H](CC(C)C)NC(=O)[C@H](CC(=O)O)NC(=O)[C@H](CC(C)C)NC(=O)[C@@H](NC(=O)[C@@H](NC(=O)[C@@H](Cc1ccccc1)NC(=O)[C@H](CCCC)NC(=O)[C@H](CCC(=O)O)NC(=O)[C@H](CC(=O)O)NC(=O)[C@H](CO)NC(=O)[C@H](Cc1ccccc1)NC(=O)[C@H](CO)NC(=O)CNC(=O)[C@H](Cc1nn[nH]n1)NC(=O)C(C)(C)C(=O)NCCc1c[nH]cn1)[C@@H](C)O)[C@@H](C)CC)C(=O)N[C@@H](C)C(=O)N[C@@H](C)C(=O)N[C@@H](CCCCN)C(=O)N[C@@H](CC(=O)O)C(=O)N[C@@H](Cc1ccccc1)C(=O)N[C@H](C(=O)N[C@@H](CC(N)=O)C(=O)N[C@@H](Cc1c[nH]c2ccccc12)C(=O)N[C@@H](CC(C)C)C(=O)N[C@H](C(=O)N[C@@H](CCC(N)=O)C(=O)N[C@H](C(=O)N[C@@H](CCCCN)C(=O)N[C@@](C)(CC(C)C)C(=O)N[C@H](C(=O)N[C@@H](CC(=O)O)C(N)=O)[C@@H](C)O)[C@@H](C)O)[C@@H](C)CC)[C@@H](C)CC [Example 13] ({Malonyl(2,2-Me2,histaminyl)}-[Ala(1H-tetrazol-5-yl)]GSFSDE[Nle][dF]TILDLK(Alloc)AAKDFINWLIQTK[αMeL]TD-NH2)
11.10 | 101% | 94.4% | 1.58 nM | 99.9% | 1.58 nM | 95.1% | 5.01 nM | C=CCOC(=O)NCCCC[C@H](NC(=O)[C@H](C)NC(=O)[C@H](C)NC(=O)[C@H](CCCCNC(=O)OCC=C)NC(=O)[C@H](CC(C)C)NC(=O)[C@H](CC(=O)O)NC(=O)[C@H](CC(C)C)NC(=O)C(C)(C)NC(=O)[C@@H](NC(=O)[C@@H](Cc1ccccc1)NC(=O)[C@H](CCCC)NC(=O)[C@H](CCC(=O)O)NC(=O)[C@H](CC(=O)O)NC(=O)[C@H](CO)NC(=O)[C@H](Cc1ccccc1)NC(=O)[C@H](CO)NC(=O)CNC(=O)[C@H](Cc1nn[nH]n1)NC(=O)C(C)(C)C(=O)NCCc1c[nH]cn1)[C@@H](C)O)C(=O)N[C@@H](CC(=O)O)C(=O)N[C@@H](Cc1ccccc1)C(=O)N[C@H](C(=O)N[C@@H](CC(N)=O)C(=O)N[C@@H](Cc1c[nH]c2ccccc12)C(=O)N[C@@H](CC(C)C)C(=O)N[C@H](C(=O)N[C@@H](CCC(N)=O)C(=O)N[C@H](C(=O)N[C@@H](CCCCN)C(=O)N[C@H](C(=O)N[C@H](C(=O)N[C@@H](CC(=O)O)C(N)=O)[C@@H](C)O)[C@@H](C)CC)[C@@H](C)O)[C@@H](C)CC)[C@@H](C)CC [Example 15] ({Malonyl(2,2-Me2,histaminyl)}-[Ala(1H-tetrazol-5-yl)]GSFSDE[Nle][dF]T[Aib]LDLK(Alloc)AAK(Alloc)DFINWLIQTKITD-NH2)
– | 103% | 92.2% | – | 100% | – | 94% | – | C=CCOC(=O)NCCCC[C@H](NC(=O)[C@H](CC(C)C)NC(=O)[C@H](CC(=O)O)NC(=O)[C@H](CC(C)C)NC(=O)[C@@H](NC(=O)[C@@H](NC(=O)[C@@H](Cc1ccccc1)NC(=O)[C@H](CCCC)NC(=O)[C@H](CCC(=O)O)NC(=O)[C@H](CC(=O)O)NC(=O)[C@H](CO)NC(=O)[C@H](Cc1ccccc1)NC(=O)[C@H](CO)NC(=O)CNC(=O)[C@H](Cc1nn[nH]n1)NC(=O)C(C)(C)C(=O)NCCc1c[nH]cn1)[C@@H](C)O)[C@@H](C)CC)C(=O)N[C@@H](C)C(=O)N[C@@H](C)C(=O)N[C@@H](CCCCN)C(=O)N[C@@H](CC(=O)O)C(=O)N[C@@H](Cc1ccccc1)C(=O)N[C@H](C(=O)N[C@@H](CC(N)=O)C(=O)N[C@@H](Cc1c[nH]c2ccccc12)C(=O)N[C@@H](CC(C)C)C(=O)N[C@H](C(=O)N[C@@H](CCC(N)=O)C(=O)N[C@H](C(=O)N[C@@H](CCCCN)C(=O)N[C@H](C(=O)N[C@H](C(=O)NC(C)(CC(=O)O)C(N)=O)[C@@H](C)O)[C@@H](C)CC)[C@@H](C)O)[C@@H](C)CC)[C@@H](C)CC (stereo partly drawn) [Example 20] ({Malonyl(2,2-Me2,histaminyl)}-[Ala(1H-tetrazol-5-yl)]GSFSDE[Nle][dF]TILDLK(Alloc)AAKDFINWLIQTKIT[ξαMeD]-NH2; C-terminus assumed)
